From patent publication US8440666B2, “Pyridazinone compounds and P2X7 receptor inhibitors” (Nissan Chemical Industries, Ltd., priority 2007, dated 2013)

biological target: T1, Human P2X7 (hP2X7) receptor (Homo sapiens, UniProt Q99572); experiment: Dye assay: BzATP-induced Yo-Pro-1 uptake in HEK293 cells stably expressing hP2X7; format: cell-based; details: BzATP 0.1 mM, Yo-Pro-1 2 μM, 30 min pre-treatment, 90 min incubation
T1 construct: myc-His (from the pcDNA3.1/myc-HisA vector); expressed in transfected cells
T1 sequence (Q99572 1-595): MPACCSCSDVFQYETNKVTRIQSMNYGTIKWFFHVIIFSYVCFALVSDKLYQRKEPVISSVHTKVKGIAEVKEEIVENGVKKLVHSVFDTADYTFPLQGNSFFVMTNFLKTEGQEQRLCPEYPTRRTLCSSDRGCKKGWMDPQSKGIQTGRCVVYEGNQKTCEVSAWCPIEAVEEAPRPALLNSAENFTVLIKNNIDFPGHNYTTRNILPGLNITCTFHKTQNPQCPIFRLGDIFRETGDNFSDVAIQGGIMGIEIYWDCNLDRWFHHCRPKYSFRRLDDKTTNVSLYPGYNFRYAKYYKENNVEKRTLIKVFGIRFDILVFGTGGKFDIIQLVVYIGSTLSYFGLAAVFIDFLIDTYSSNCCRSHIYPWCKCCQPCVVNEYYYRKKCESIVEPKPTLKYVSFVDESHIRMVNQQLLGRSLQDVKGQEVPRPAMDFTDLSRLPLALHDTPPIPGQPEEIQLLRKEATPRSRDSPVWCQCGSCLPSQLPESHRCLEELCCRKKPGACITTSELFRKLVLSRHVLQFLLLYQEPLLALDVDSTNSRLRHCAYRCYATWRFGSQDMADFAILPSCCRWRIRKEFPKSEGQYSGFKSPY
Description: Human P2X7 (hP2×7) was cloned from a normal human brain total RNA library by reverse transcription (using SuperScript II (Invitrogen)) and PCR (using KOD-plus-(TOYOBO)). PCR primers were designed according to hP2X7 sequence registered in GENBANK with a putative amino acid sequence consisting of 595 amino acid residues. The PCR fragments were inserted into pcDNA3.1/myc-HisA vector (Invitrogen) and sequenced for confirmation.
HEK293 cells were transfected with hP2×7/pcDNA3.1/myc-HisA by lipofection, and 1 day later, the cells were treated with 1 mg/mL G418, and resistant cells were selected by appropriately dilution. The resistant cells were cloned by reseeding at a low density.
P2X7 receptor antagonists were screened by a dye uptake assay using HEK293 cells stably expressing hP2×7. Cells were plated on a type I collagen-coated black/clear bottom 96-well plate at 20000 cells/well and a day later, treated with varying concentrations of various test compounds for 30 minutes, then treated with a dye (Yo-Pro-1) (final concentration 2 μM) and BzATP (final concentration 0.1 mM) and incubated for 90 minutes. Then, the fluorescence (indicating the BzATP-induced Yo-Pro-1 uptake mediated by the P2X7 receptor) was measured with a microplate reader (excitation wavelength: 485 nm, emission wavelength: 535 nm). The % inhibition rates were calculated and plotted against the logarithms of the concentrations to determine IC50.

| IC50 | Structure (SMILES) |
| --- | --- |
| 16 nM | CC(NC(=O)Cn1ncc(NC2CCC[C@@H]3CCCC[C@H]23)c(Cl)c1=O)c1ccncc1 (stereo partly drawn) [compound 453] |

same assay, conditions: BzATP (0.1 mM)-induced Yo-Pro-1 uptake, compounds 30 min pre-treatment, 90 min incubation

| Structure (SMILES) | IC50 |
| --- | --- |
| O=C(Cn1ncc(NC2CC3CC4CC(C3)C2C4)c(Br)c1=O)NCc1ccncc1 (stereo not drawn) [compound 331] | 19 nM |
| O=C(Cn1ncc(NC2CCCCCCCCC2)c(Br)c1=O)NCc1ccncc1 [compound 326] | 160 nM |
| CC(C)NC(=O)Cn1ncc(N[C@@H]2C[C@@H]3C[C@H]([C@H]2C)C3(C)C)c(Cl)c1=O [compound 134] | 20 nM |
| CN(C)c1cnccc1CNC(=O)Cn1ncc(NC23CC4CC(CC(C4)C2)C3)c(Cl)c1=O [compound 366] | 2.6 nM |
| C[C@@H]1[C@H]2C[C@@H](C[C@H]1Nc1cnn(CC(=O)Nc3ccc4c(c3)C(=O)N(C)C4=O)c(=O)c1Br)C2(C)C [compound 88] | 44 nM |
| C[C@@H]1[C@H]2C[C@@H](C[C@H]1Nc1cnn(CC(=O)NCc3ccncc3)c(=O)c1-c1ccncc1)C2(C)C [Synthetic Example 379, 2-[6-Oxo-5-(pyridin-4-yl)-4-{[(1R,2R,3R,5S)-2,6,6-trimethylbicyclo[3.1.1]hept-3-yl]amino}pyridazin-1(6H)-yl]-N-(pyridin-4-ylmethyl)acetamide] | 240 nM |
| C[C@@H]1[C@H]2C[C@@H](C[C@H]1Nc1cnn(Cc3ccncc3)c(=O)c1Br)C2(C)C [Synthetic Example 394, 4-Bromo-2-(pyridin-4-ylmethyl)-5-{[(1R,2R,3R,5S)-2,6,6-trimethylbicyclo[3.1.1]hept-3-yl]amino}pyridazin-3(2H)-one] | 220 nM |
| CC(NC(=O)Cn1ncc(NC2C3CCCC2CCC3)c(Cl)c1=O)c1ccnc(F)c1 (stereo not drawn) [compound 377] | 2.3 nM |
| CCC(NC(=O)Cn1ncc(NC2C[C@@H]3CC([C@H]2C)C3(C)C)c(OC(F)F)c1=O)c1ccncc1 (stereo partly drawn) [Synthetic Example 382] | 25 nM |

Second part, the molecule after the results:

| IC50 | Structure (SMILES) |
| --- | --- |
| 120 nM | CCC(NC(=O)Cn1ncc(N[C@@H]2C[C@@H]3C[C@H]([C@H]2C)C3(C)C)c(Cl)c1=O)C(N)=O (stereo partly drawn) [Synthetic Example 402, 2-({[5-Chloro-6-oxo-4-{[(1R,2R,3R,5S)-2,6,6-trimethylbicyclo[3.1.1]hept-3-yl]amino}pyridazin-1(6H)-yl]acetyl}amino)butanamide] |
| 90 nM | C[C@@H]1[C@H]2C[C@@H](C[C@H]1Nc1cnn(CC(=O)NC[C@H]3CCCN3C(=O)OC(C)(C)C)c(=O)c1Br)C2(C)C [compound 201] |
| 71 nM | O=C(Cn1ncc(NCC23CC4CC(CC(C4)C2)C3)c(Br)c1=O)NCc1ccncc1 [compound 60] |
| 58 nM | C[C@@H]1[C@H]2C[C@@H](C[C@H]1Nc1cnn(CC(=O)NCc3ccc(O)cc3)c(=O)c1Br)C2(C)C [compound 205] |
| 42 nM | CC(C)CNC(=O)Cn1ncc(N[C@@H]2C[C@@H]3C[C@H]([C@H]2C)C3(C)C)c(Br)c1=O [compound 209] |
| 41 nM | CC1(C)C2CCC1(C)C(Nc1cnn(CC(=O)NCc3ccncc3)c(=O)c1Br)C2 (stereo not drawn) [compound 61] |
| 25 nM | O=C(Cn1ncc(NC23CC4CC(CC2C4)C3)c(Cl)c1=O)NCc1ccnc(F)c1 [compound 343] |
| 20 nM | C[C@@H]1[C@H]2C[C@@H](C[C@H]1Nc1cnn(CC(=O)NCc3cccnc3)c(=O)c1Br)C2(C)C [compound 12] |
| 19 nM | C[C@@H]1[C@H]2C[C@@H](C[C@H]1Nc1cnn(CC(=O)NCc3ccno3)c(=O)c1Br)C2(C)C [compound 127] |
| 6 nM | CC(NC(=O)Cn1ncc(NC2C3CCCC2CCC3)c(Cl)c1=O)c1ccncn1 (stereo not drawn) [compound 374] |
| 4.3 nM | C[C@@H]1[C@H]2C[C@@H](C[C@H]1Nc1cnn(CC(=O)NCc3ccnc(F)c3)c(=O)c1Br)C2(C)C [compound 222] |
| 2.8 nM | CN(C)c1cnccc1CNC(=O)Cn1ncc(NC2C3CCCC2CCC3)c(Cl)c1=O (stereo not drawn) [compound 373] |
| 2.7 nM | CC(NC(=O)Cn1ncc(NC2C3CCCC2CCC3)c(Cl)c1=O)c1ccnnc1 (stereo not drawn) [compound 376] |
| 2.6 nM | C[C@@H](NC(=O)Cn1ncc(NC2C3CC4CC(C3)CC2C4)c(Cl)c1=O)c1ccncc1 (stereo partly drawn) [compound 368] |
